In paper PMC11241527, “Long-Chain Alkylthio Cyclodextrin Derivatives for Modulation of Quorum-Sensing-Based Bioluminescence in Aliivibrio fischeri Model System” (International Journal of Molecular Sciences, 2024):
Where two headings read alike, the source gives them in different places.

Legend:
A. fischeri [1] = assay: Cell viability, tetrazolium (MTT) reduction assay; type: cell-based, Aliivibrio fischeri; conditions: 120 min; for inhibition in the viability: 10 mM; for inhibitive effect on cell viability, maximum: 0.08 mM
Procedure: The cell viability assay characterizing the activity of the hydrogen transport (the dehydrogenase enzyme activity) is based on the spectrophotometric measurement of the absorbance of a formazan product of the reduction in the tetrazolium salts.
The absorbance—which we determined after 120 min of exposure—is directly proportional to the metabolic activity of the cells.
To examine the potential influence of the CDs on the vitality of the bacteria, an enzyme activity assay was applied using 3-(4,5-dimethylthiazol-2-yl)-2,5-diphenyltetrazolium bromide (MTT).
Metabolically active cells reduce the […] MTT into a black formazan product, whose concentration is directly proportional to the activity of the viable cells. Following the population growth assay, the assay was performed in the same microplates by adding 30 μL of 4 mg/mL sterile MTT solution to each well.
The microtiter plate was then incubated for 30 min until color development.

A. fischeri [2] = assay: Optical density measurement, population growth assay; type: cell-based, Aliivibrio fischeri; conditions: for inhibition of population growth (optical density): within 30, 60 and 120 min, regardless of the concentration; for inhibition at 2000 µM: 2 mM, read-out: inhibition of cell proliferation (population growth), maximum; for inhibition at 10000 µM: 10 mM
Procedure: (§1) The bacterial strain A. fischeri (NRRL B-111 77) was cultured and maintained in the laboratory under axenic circumstances. The 16 h old (overnight) cell culture applied for the tests was prepared by inoculating 30 mL of Photobacterium medium with an ampoule of lyophilized bacteria. The culture was shaken in the dark at 160 rpm, 24 °C, to an optical density of 0.6 at 600 nm (OD600).
The measurements were carried out as described by Molnár et al. (2021). The OD was measured after the incubation period, following the bioluminescence inhibition assay with DIALAB ELx800 ELISA Microplate Reader (Dialab GmbH, Wiener Neudorf, Austria) at the wavelength of 630 nm.

A. fischeri [3] = assay: Bioluminescence inhibition assay in the Aliivibrio fischeri model system; type: cell-based; conditions: for EC20: 20% inhibition of bioluminescence after 120 min exposure; for inhibition at 2000 µM: read-out: inhibition of bioluminescence; for inhibitory effect on bioluminescence, upper limit in any case: any tested concentration and time, not statistically significant
Procedure: The time- and concentration-dependent effect of native α- and β-CDs, their N,N,N-trimethyl-ammoniopropyl derivatives, and novel alkylthio derivatives were tested in a series of short-term (30–120 min) experiments at 0.008–10 mM concentration range. To differentiate between the quorum-quenching effect and the cytotoxic effect of the CDs, bioluminescence as well as cell viability (the population growth and the enzyme activity) were determined.
as §1
The tested CD molecules were suspended in sterile distilled water and sterilized in an autoclave. A dilution series was prepared from the stock solutions (suspensions), covering a 0.04–50 mM concentration range.
The experiments were carried out with overnight A. fischeri cell culture in 96-well microtiter plates with a total volume of 250 µL. Fifty microliters of the members of the fivefold dilution series made from stock solutions were added to the wells of a sterile, transparent, 96-well, round-bottomed Sarstedt microtiter plate in four replicates. Distilled water was used as a negative control in the same volume.
To ensure the validity of data and verify the sensitivity of the bacteria, a five-member CuSO4 dilution series (1.6 ppm, 8 ppm, 40 ppm, 200 ppm, and […]) was used as a positive control. After that, 200 μL of the diluted overnight culture was added to the wells, except for the blank samples, for which 200 μL of Photobacterium medium was added instead.
The bioluminescence intensity was measured with a Fluostar Optima microplate reader (BMG Labtech, Ortenberg, Germany; fluorescence detection limit > 30 amol/well ATP) after 30, 60, and 120 min of exposure. The evaluation of the results was carried out as described by Ujaczki et al. (2015).
The determination of the concentration–response relationship is a method employed in the field of environmental toxicology, with the objective of objectively assessing the effects of different chemicals. The effective concentration endpoints (EC20 and EC50 values) of the tests are uniformly used for the quantification and comparison of the effects of chemicals and environmental matrices.

[4] = Solubility in water at 25 °C; type: physicochemical; conditions: for solubility: read-out: WS, water solubility
Procedure: The characteristics: abbreviations (A), the molecular weight (MW), the solubility in water at 25 °C (WS), and the degree of substitution (DS) of the tested CDs are presented in Table 4 and Table 5.

[5] = Aggregation studies by dynamic light scattering (volume particle size distribution); type: physicochemical; conditions: 1% aqueous solution, 25 °C
Procedure: Most CDs are prone to aggregation in aqueous solution due to their numerous hydroxyl moieties.
The aggregation behavior (nanoparticle formation) was studied by photon correlation spectroscopy (dynamic light scattering) using Malvern Zetasizer Nano ZS (Malvern Instruments, Malvern, UK) equipment at 25 °C using 1% aqueous solution.

A. fischeri [6] = tested on: A. fischeri; design: method as in PMID 33321169; conditions: cited from earlier work
[7] = Aliivibrio fischeri, 0.5 h, 30 min
[8] = Aliivibrio fischeri, 1 h, 60 min
[9] = Aliivibrio fischeri, 2 h, 120 min

## N,N,N-Trimethylammoniopropyl-6-monodeoxy-6-monodecanethiol-α-CD [QA-6S-C10-α-CD (4)]
A. fischeri [1]; regardless of concentration
  inhibition of the enzyme activity (cell viability): 24–27%
A. fischeri [2]
  inhibition of population growth (optical density): up to 30%
A. fischeri [3]; 1 mM, 120 min
  reduction of bioluminescence: 69%
A. fischeri [3]
  EC20: 200 µM
A. fischeri [3]; 50% inhibition of bioluminescence after 120 min exposure, read-out: EC50
  EC50: 240 µM

## N,N,N-Trimethylammoniopropyl-α-CD [QA-α-CD (2), reference compound]
A. fischeri [1]
  inhibition in the viability: 41%
A. fischeri [2]
  inhibition of population growth (optical density): up to 30%
A. fischeri [3]
  EC20: 3140 µM
A. fischeri [3]; tested concentrations 0.08-10 mM, examined period 30-120 min
  inhibition of bioluminescence (significance): no significant inhibition

## N,N,N-Trimethylammoniopropyl-6-monodeoxy-6-monohexadecanethiol-β-CD [QA-6S-C16-β-CD (9)]
A. fischeri [1]; 5 mM
  inhibition of cell viability: 35%
A. fischeri [2]; 5 mM, 120 min
  inhibition of population growth: 38%
[4]
  WS, water solubility: ~10 mg/mL
[5]
  average size of larger aggregates: 111 nm
  size of larger aggregates with high polydispersity: 50–500 nm
A. fischeri [3]; 1 mM, time not stated
  inhibitory effect (QS inhibition, bioluminescence): 48%
A. fischeri [3]
  EC20: 170 µM

## Native α-CD [α-CD (1), reference compound]
A. fischeri [6]; 10 mM, 120 min exposure time
  inhibition of bioluminescence: over 60%
A. fischeri [1]
  inhibition in the viability: 29%
A. fischeri [2]
  inhibition of population growth (optical density): up to 30%
A. fischeri [3]
  inhibition of bioluminescence (significance): no significant inhibition
  EC20: 80 µM

## CCCCCCCCCCCCSC[C@H]1O[C@@H]2O[C@H]3[C@H](O)[C@@H](O)[C@@H](O[C@H]4[C@H](O)[C@@H](O)[C@@H](O[C@H]5[C@H](O)[C@@H](O)[C@@H](O[C@H]6[C@H](O)[C@@H](O)[C@@H](O[C@H]7[C@H](O)[C@@H](O)[C@@H](O[C@H]8[C@H](O)[C@@H](O)[C@@H](O[C@H]1[C@H](O)[C@H]2O)O[C@@H]8CO)O[C@@H]7CO)O[C@@H]6CO)O[C@@H]5CO)O[C@@H]4CO)O[C@@H]3CO [6S-C12-β-CD (7), 6-monodeoxy-6-monododecanethiol-β-CD]
A. fischeri [1]; 2 mM
  vitality-reducing effect (cell viability): 41%
A. fischeri [2]; [7]
  inhibition at 2000 µM: 72%
A. fischeri [2]; [8]
  inhibition at 2000 µM: 69%
A. fischeri [2]; [9]
  inhibition at 2000 µM: 65%
[4]
  solubility: > 10 mg/mL
A. fischeri [3]
  EC20: 90 µM
A. fischeri [3]; Aliivibrio fischeri, 0.5 h
  inhibition at 2000 µM: 77%
A. fischeri [3]; Aliivibrio fischeri, 1 h
  inhibition at 2000 µM: 76%
A. fischeri [3]; Aliivibrio fischeri, 2 h
  EC50: 760 µM
  inhibition at 2000 µM: 70%

## N,N,N-Trimethylammoniopropyl-β-CD [QA-β-CD (6), reference compound]
A. fischeri [1]
  inhibitive effect on cell viability, maximum: 10%
A. fischeri [2]; 0.08 mM, 30 min of exposure
  inhibition of population growth, maximum: ≤ 34%
[4]
  WS, water solubility: >500 mg/mL
A. fischeri [3]
  inhibitory effect on bioluminescence, upper limit in any case: ≤ 35%

## CCCCCCCCCCCCSC[C@H]1O[C@@H]2O[C@H]3[C@H](O)[C@@H](O)[C@@H](O[C@H]4[C@H](O)[C@@H](O)[C@@H](O[C@H]5[C@H](O)[C@@H](O)[C@@H](O[C@H]6[C@H](O)[C@@H](O)[C@@H](O[C@H]7[C@H](O)[C@@H](O)[C@@H](O[C@H]1[C@H](O)[C@H]2O)O[C@@H]7CO)O[C@@H]6CO)O[C@@H]5CO)O[C@@H]4CO)O[C@@H]3CO [6S-C12-α-CD (3), 6-monodeoxy-6-monododecanethiol-α-CD]
A. fischeri [1]; at 2 and 10 mM
  decrease in cell viability, maximum: 40%
A. fischeri [2]; [7]
  inhibition at 10000 µM: 50%
A. fischeri [2]; [8]
  inhibition at 10000 µM: 54%
A. fischeri [2]; [9]
  inhibition at 10000 µM: 59%
[4]
  solubility: > 10 mg/mL
A. fischeri [3]; 0.4 mM, 120 min
  decrease in bioluminescence intensity: 71%
A. fischeri [3]; 10 mM, 120 min
  decrease in bioluminescence intensity: 79%
A. fischeri [3]
  EC20: 60 µM
A. fischeri [3]; Aliivibrio fischeri, 2 h
  EC50: 160 µM
  inhibition at 2000 µM: 85%

## OC[C@H]1O[C@@H]2O[C@H]3[C@H](O)[C@@H](O)[C@@H](O[C@H]4[C@H](O)[C@@H](O)[C@@H](O[C@H]5[C@H](O)[C@@H](O)[C@@H](O[C@H]6[C@H](O)[C@@H](O)[C@@H](O[C@H]7[C@H](O)[C@@H](O)[C@@H](O[C@H]8[C@H](O)[C@@H](O)[C@@H](O[C@H]1[C@H](O)[C@H]2O)O[C@@H]8CO)O[C@@H]7CO)O[C@@H]6CO)O[C@@H]5CO)O[C@@H]4CO)O[C@@H]3CO [β-CD (5), Native β-CD, reference compound]
A. fischeri [1]
  inhibitive effect on cell viability, maximum: 15%
A. fischeri [2]; Aliivibrio fischeri, 0.5 h, read-out: inhibition of population growth, maximum
  inhibition at 80 µM: ≤ 34%
A. fischeri [3]
  inhibitory effect on bioluminescence, upper limit in any case: ≤ 35%

## OC[C@H]1O[C@@H]2O[C@H]3[C@H](O)[C@@H](O)[C@@H](O[C@H]4[C@H](O)[C@@H](O)[C@@H](O[C@H]5[C@H](O)[C@@H](O)[C@@H](O[C@H]6[C@H](O)[C@@H](O)[C@@H](O[C@H]7[C@H](O)[C@@H](O)[C@@H](O[C@H]8[C@H](O)[C@@H](O)[C@@H](O[C@H]9[C@H](O)[C@@H](O)[C@@H](O[C@H]1[C@H](O)[C@H]2O)O[C@@H]9CO)O[C@@H]8CO)O[C@@H]7CO)O[C@@H]6CO)O[C@@H]5CO)O[C@@H]4CO)O[C@@H]3CO [γ-CD]
A. fischeri [6]; previous study
  quorum-quenching efficacy (reduction of bacterial bioluminescence): ineffective
